Experimental data: PubChem BioAssay AID2060511 (Molecular Pharmacology Branch, DTP, NCI, 2025)

Test system: 422866-222-R5-J1-PDC spheroids with HUVEC/MSC, viability
Assay: Anticancer human tumor 422866-222-R5-J1-PDC patient-derived pancreatic adenocarcinoma cell line growth inhibition [GQUAD]
Details: for IC50: curve of first compound; for viability, T/C: stronger effect = lower value
Source text: DNA G-quadruplex Stabilizer Agents in Combinations in Complex Spheroids
A high-throughput screen of multi-cell type tumor spheroids was designed to identify active combinations of DNA G-quadruplex stabilizer agents and targeted small molecules. Complex spheroids include a stromal component modeled by human endothelial cells (HUVEC) and fibroblasts modeled by human mesenchymal stem cells (MSCs). The concentration ranges selected for each drug and investigational agent were based upon clinically achievable concentrations if the clinical Cmax of the agent was known.
Compounds. The drugs and investigational agents: pidnarulex (CX-5461; NSC782164), APTO-253 (NSC789042), BRACO-19 (NSC847499), peposertib (NSC802822), ceralasertib (NSC780249), elimusertib (NSC800525), camonsertib (NSC841442), AZD-1390 (NSC803789), olaparib (NSC753686), talazoparib (NSC767125), ART-558 (NSC835418), sotorasib (NSC818433), MRTX-1133 (NSC836407), SN-38 (NSC673596), topotecan (NSC609699), etoposide (NSC141540), doxorubicin (NSC123127), gemcitabine (NSC613327), 5-fluorouracil (NSC19893), paclitaxel (NSC125973), vemurafenib (NSC761431), panobinostat (NSC761190), R-306465 (JNJ-16241199; NSC773264), adavosertib (NSC754352), TP-3654 (NSC805149), carboplatin (NSC241240), KSQ-4279 (NSC840948), and staurosporine (NSC755774) were obtained from the National Cancer Institute (NCI) Developmental Therapeutics Program Chemical Repository (34). The FDA-approved anticancer drug set is available from the NCI Developmental Therapeutics Program. […] The stock solutions were prepared in dimethyl sulfoxide (DMSO, Sigma-Aldrich, St. Louis, MO, cat. D2650) at 800-fold the tested concentration and stored at -70 degrees C prior to their use. All drugs and investigational agents were tested over a range starting from a high concentration at or near the clinical Cmax and decreasing in half-log increments. If the clinical Cmax for an agent had not been determined, the highest concentration tested was 10 microM.
2.3 Cell Culture. All cells were maintained in an incubator at 37 degrees C and 5% CO2 with 95% humidity. The PDC lines were cultured according to standard operating procedures established by the NCI PDMR. All PDCs were thawed and cultured in Matrigel-coated flasks prepared with a working solution of 1X Ham's F-12 nutrient mix, without supplementation (Invitrogen, cat. 11765054), 100 U/mL penicillin-streptomycin (Invitrogen, cat. 15140122), and 2.5% Matrigel (Corning Inc., cat. 354248) for the first three passages. The 857933-349-R-J2-PDC line was cultured in 6C/Colon 1B media, which includes advanced DMEM/F-12 (Thermo Fisher Scientific, cat. 12634028), 10 mM HEPES (Thermo Fisher Scientific, cat. 15630080), 1X GlutaMAX supplement (Thermo Fisher Scientific, cat. 35050061), 0.1 mg/mL primocin (InvivoGen, cat. ant-pm-2), 10% defined fetal bovine serum, heat inactivated (HyClone Laboratories Inc., cat. SH30070.03HI), 50% L-WRN conditioned media (ATCC, cat. CRL-3276), 1.25 mM N-Acetyl-L-cysteine (Sigma-Aldrich, cat. A9165), 10 mM nicotinamide (Sigma-Aldrich, cat. N0636), 1X B-27 supplement (Thermo Fisher Scientific, cat. 17504044), 1X N-2 supplement (Thermo Fisher Scientific, cat. 17502048), 10 microM Y-27632 dihydrochloride (Tocris Bioscience, cat. 1254), and 50 ng/mL human EGF recombinant protein (Thermo Fisher Scientific, cat. PHG0311). The 485176-168-R4-J1-PDC line was cultured in Panc media, which includes all 6C/Colon 1B media components plus 100 ng/mL human FGF-10 (Thermo Fisher Scientific, cat. 100-26), 500 nM SB-431542 (Selleckchem, cat. S1067), and gastrin (Tocris, cat. 3006).
[…]
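Also: spheroids exposed to compounds for seven days before reading.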
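For viability, T/C in this document: percent viability relative to DMSO vehicle control taken as 100%.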

SMILES: COc1cc(C2c3cc4c(cc3C(OC3OC5COC(C)OC5C(O)C3O)C3COC(=O)C23)OCO4)cc(OC)c1O (configuration not stated) + Cc1cnc(CNC(=O)c2c(=O)c3ccc(N4CCCN(C)CC4)nc3n3c2sc2ccccc23)cn1
- IC50 (second compound 0.0316 µM): 3.77 µM
- IC50 (second compound 0.1 µM): > 10 µM
- IC50 (second compound 0.316 µM): > 10 µM
- IC50 (second compound 1 µM): > 10 µM
- IC50 (second compound 3.16 µM): > 10 µM
- IC50 (second compound 10 µM): > 10 µM
- viability, T/C (second compound 0.0316 µM, first compound 0.0316 µM): 98.4%
- viability, T/C (second compound 0.0316 µM, first compound 0.1 µM): 78.3%
- viability, T/C (second compound 0.0316 µM, first compound 0.316 µM): 83.7%
- viability, T/C (second compound 0.0316 µM, first compound 1 µM): 59.4%
- viability, T/C (second compound 0.0316 µM, first compound 3.16 µM): 53.5%
- viability, T/C (second compound 0.0316 µM, first compound 10 µM): 39.1%
- viability, T/C (second compound 0.1 µM, first compound 0.0316 µM): 92.8%
- viability, T/C (second compound 0.1 µM, first compound 0.1 µM): 79.2%
- viability, T/C (second compound 0.1 µM, first compound 0.316 µM): 77.6%
- viability, T/C (second compound 0.1 µM, first compound 1 µM): 66.8%
- viability, T/C (second compound 0.1 µM, first compound 3.16 µM): 59.2%
- viability, T/C (second compound 0.1 µM, first compound 10 µM): 49.7%
- viability, T/C (second compound 0.316 µM, first compound 0.0316 µM): 81.6%
- viability, T/C (second compound 0.316 µM, first compound 0.1 µM): 94.8%
- viability, T/C (second compound 0.316 µM, first compound 0.316 µM): 84%
- viability, T/C (second compound 0.316 µM, first compound 1 µM): 80.9%
- viability, T/C (second compound 0.316 µM, first compound 3.16 µM): 71.8%
- viability, T/C (second compound 0.316 µM, first compound 10 µM): 58.9%
- viability, T/C (second compound 1 µM, first compound 0.0316 µM): 81.9%
- viability, T/C (second compound 1 µM, first compound 0.1 µM): 92%
- viability, T/C (second compound 1 µM, first compound 0.316 µM): 91.4%
- viability, T/C (second compound 1 µM, first compound 1 µM): 91.4%
- viability, T/C (second compound 1 µM, first compound 3.16 µM): 81.1%
- viability, T/C (second compound 1 µM, first compound 10 µM): 56%
- viability, T/C (second compound 3.16 µM, first compound 0.0316 µM): 84.6%
- viability, T/C (second compound 3.16 µM, first compound 0.1 µM): 87.3%
- viability, T/C (second compound 3.16 µM, first compound 0.316 µM): 82.4%
- viability, T/C (second compound 3.16 µM, first compound 1 µM): 85.5%
- viability, T/C (second compound 3.16 µM, first compound 3.16 µM): 81.6%
- viability, T/C (second compound 3.16 µM, first compound 10 µM): 60%
- viability, T/C (second compound 10 µM, first compound 0.0316 µM): 86.2%
- viability, T/C (second compound 10 µM, first compound 0.1 µM): 80.4%
- viability, T/C (second compound 10 µM, first compound 0.316 µM): 85.5%
- viability, T/C (second compound 10 µM, first compound 1 µM): 93.2%
- viability, T/C (second compound 10 µM, first compound 3.16 µM): 85.1%
- viability, T/C (second compound 10 µM, first compound 10 µM): 52.1%
